target: T1, Mitochondrial import inner membrane translocase subunit TIM23 (Saccharomyces cerevisiae (strain ATCC 204508 / S288c), UniProt P32897); assay: analog potency on tim23-1 yeast growth – luminescence, S. cerevisiae, SAR follow-up (AID 602375)
T1 sequence (P32897 whole entry): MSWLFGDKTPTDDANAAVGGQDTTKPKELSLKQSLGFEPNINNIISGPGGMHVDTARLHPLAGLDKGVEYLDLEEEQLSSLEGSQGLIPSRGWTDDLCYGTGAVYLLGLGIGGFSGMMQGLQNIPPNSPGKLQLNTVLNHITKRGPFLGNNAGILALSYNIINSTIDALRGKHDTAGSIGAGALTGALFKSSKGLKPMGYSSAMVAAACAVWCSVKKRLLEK

IC50 | Compound
> 99 µM | CCOc1ccc2nc(-n3c(O)c[nH]c3=S)sc2c1 [3-(6-Ethoxy-benzothiazol-2-yl)-2-thioxo-imidazolidin-4-one]
44.3 µM | Cc1ccc(C2NN=C(c3ccc(Cl)cc3Cl)S2)cc1 (stereo not given) [MLS-0463404.0001]
> 99 µM | Cc1c2c(n(Cc3ccco3)c1C)N=CN1C=CS(=O)(=O)NC21 (stereo not given) [8-(furan-2-ylmethyl)-9,10-dimethyl-3,4-dihydropyrrolo[1,2]pyrimido[3,5-b][1,2,4]thiadiazine 2,2-dioxide]
50.3 µM | Cc1ccc2nc(-n3c(O)c[nH]c3=S)sc2c1
11.2 µM | C(=CN=Nc1nc2ccccc2[nH]1)Cc1ccccc1 [MLS000390936]
